Results reported in ChEMBL document CHEMBL5727957, “1H-pyrazolo[4,3-b]pyridines as PDE1 inhibitors” (2020).

Columns and labels:
[1] = molecular target: Dual specificity calcium/calmodulin-dependent 3',5'-cyclic nucleotide phosphodiesterase 1C (Homo sapiens, UniProt Q14123); test: Inhibition Assay: PDE1A, PDE1B and PDE1C assays were performed as follows: the assays were performed in 60 μL samples containing a fixed amount of the PDE1 enzyme (sufficient to convert 20-25% of the cyclic nucleotide substrate), a buffer (50 mM HEPES pH 7.6; 10 mM MgCl2; 0.02% Tween20), 0.1 mg/ml BSA, 15 nM tritium labelled cAMP and varying amounts of inhibitors. Reactions were initiated by …
Dual specificity calcium/calmodulin-dependent 3',5'-cyclic nucleotide phosphodiesterase 1C, sequence (Q14123 whole entry): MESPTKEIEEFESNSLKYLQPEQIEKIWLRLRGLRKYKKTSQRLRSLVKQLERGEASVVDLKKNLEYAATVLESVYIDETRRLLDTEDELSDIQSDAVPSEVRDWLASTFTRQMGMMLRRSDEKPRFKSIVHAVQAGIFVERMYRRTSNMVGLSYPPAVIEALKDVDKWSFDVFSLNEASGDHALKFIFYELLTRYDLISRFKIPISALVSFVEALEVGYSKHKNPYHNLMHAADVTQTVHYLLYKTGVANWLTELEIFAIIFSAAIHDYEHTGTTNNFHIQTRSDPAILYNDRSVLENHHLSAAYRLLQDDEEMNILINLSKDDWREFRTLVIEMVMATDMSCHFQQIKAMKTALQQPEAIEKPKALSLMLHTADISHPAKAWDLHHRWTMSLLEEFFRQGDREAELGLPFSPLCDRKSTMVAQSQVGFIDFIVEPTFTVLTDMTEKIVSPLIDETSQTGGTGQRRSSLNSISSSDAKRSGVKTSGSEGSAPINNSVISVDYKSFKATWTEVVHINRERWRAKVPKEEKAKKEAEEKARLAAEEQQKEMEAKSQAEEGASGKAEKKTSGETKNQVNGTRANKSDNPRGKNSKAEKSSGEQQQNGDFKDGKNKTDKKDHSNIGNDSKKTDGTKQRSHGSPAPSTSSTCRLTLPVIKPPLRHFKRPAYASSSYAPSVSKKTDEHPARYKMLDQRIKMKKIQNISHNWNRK
Description: (§1) Reactions were initiated by addition of the cyclic nucleotide substrate, and reactions were allowed to proceed for 1 hr at room temperature before being terminated through mixing with 20 μL (0.2 mg) yttrium silicate SPA beads (PerkinElmer).

[2] = molecular target: Dual specificity calcium/calmodulin-dependent 3',5'-cyclic nucleotide phosphodiesterase 1A (Homo sapiens, UniProt P54750); test: as above
Dual specificity calcium/calmodulin-dependent 3',5'-cyclic nucleotide phosphodiesterase 1A, sequence (P54750 whole entry): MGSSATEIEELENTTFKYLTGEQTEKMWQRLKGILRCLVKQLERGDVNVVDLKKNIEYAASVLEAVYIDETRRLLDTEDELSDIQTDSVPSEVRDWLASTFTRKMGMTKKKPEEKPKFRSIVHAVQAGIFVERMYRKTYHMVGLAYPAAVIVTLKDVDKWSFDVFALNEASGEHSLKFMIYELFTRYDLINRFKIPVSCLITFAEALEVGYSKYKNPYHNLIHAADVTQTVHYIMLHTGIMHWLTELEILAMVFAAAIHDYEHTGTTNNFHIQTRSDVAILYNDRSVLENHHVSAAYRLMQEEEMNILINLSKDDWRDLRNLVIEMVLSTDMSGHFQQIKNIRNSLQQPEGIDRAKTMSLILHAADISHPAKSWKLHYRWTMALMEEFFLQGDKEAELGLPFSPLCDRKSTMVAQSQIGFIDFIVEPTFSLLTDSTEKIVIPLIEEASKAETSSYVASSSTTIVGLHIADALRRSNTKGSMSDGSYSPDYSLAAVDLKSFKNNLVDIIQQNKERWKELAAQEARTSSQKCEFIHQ
Description: as §1

Compound | IC50 [1] [µM] | IC50 [2] [µM]
CCOc1ncccc1-c1cc(NCc2cccn3c(C)nnc23)c2c(n1)c(C)nn2C(C)C | 0.0061 | 0.003
CCOc1ncccc1-c1cc(NCc2cccc3ocnc23)c2c(n1)c(C)nn2C(C)C | 0.039 | 0.014
